Data on 3 compounds can be found in patent EP3981864A1, “DETERGENT COMPOSITION” (priority 2020, dated 2022).

The structures appear in SMILES notation.

Experiment [1] deals with Citrus sinensis αDOX (SEQ ID NO: 11), fatty acid alpha-dioxygenase, A0A067FHE4, N-terminal His-tag variant SEQ ID NO: 269 (comparative). Briefly: Alpha-dioxygenase activity assay (oxygen consumption, TON). Type of experiment: biochemical. To be noted: fatty acid 100 µM, enzyme 6 ppm, 50 mM HEPES pH 9.0, 37°C; initial rate of oxygen consumption / enzyme concentration. An excerpt: (§1) Citrus sinensis αDOX (SEQ ID NO: 11) is a fatty acid alpha-dioxygenase that converts fatty acids into the corresponding 2-hydroperoxy fatty acids and is included as a comparative example of the present invention. A codon optimized gene (SEQ ID NO: 268) encoding for an alpha-dioxygenase variant (SEQ ID NO: 269), including an N-terminal amino acid sequence containing a His-tag was designed and synthesized by Genscript. After gene synthesis, the protein was expressed and purified. In brief, the complete synthetic gene sequence was subcloned into a pET30a vector using the NdeI/HindIII cloning sites. For heterologous expression, Escherichia coli BL21 (DE3) cells were transformed with the recombinant plasmid and a single colony was inoculated into LB medium containing kanamycin (50 mg/L). A pre-starter culture was then inoculated into flasks containing Magic Media (Thermo Fisher, Catalog # K6803) supplemented with kanamycin (50 mg/L) and incubated at 16 °C for 72 h. At an OD600nm = 0.5 - 1.0, 5-aminolevulinic acid (final concentration 0.5 mM) was added. Cells were harvested by centrifugation at 5000 rpm and 4°C and the pellet was lysed using a bacterial cell lysis buffer (B-PER - Themo Fisher, Waltham, MA). After centrifugation, the supernatant was collected, and the protein was purified by one-step purification using HisPur™ Ni-NTA Spin Columns (Thermo Scientific, Catalog # 88226) and standard protocols known in the art. The protein was concentrated using a 10 kDa MW cutoff Amicon Ultra centrifugal filter unit (Millipore Sigma, Catalog# UFC901024), followed by desalting using a disposable PD-10 desalting column (GE Healthcare Life Sciences, Catalog# 17085101) and a buffer containing 50 mM Tris-HCl, 500 mM NaCl, and 10% Glycerol at pH 8.0. […]
(§2) Reactions with alpha-dioxygenases were performed as follows. […] The reaction was incubated for up to 10 minutes at 37°C with 200 rpm agitation and the conversion was monitored using an oxygen sensor. The TON (in s-1) were calculated as the ratio between the initial rate of oxygen consumption (in µM/s) and the concentration of enzyme (in µM). […]

For experiment [2], the system named is Pseudomonas alcaligenes αDOX (SEQ ID NO: 12), fatty acid alpha-dioxygenase, U3BA19, N-terminal His-tag variant SEQ ID NO: 271 (comparative). The experiment is described as above. The format is biochemical. To be noted: fatty acid 100 µM, enzyme 6 ppm, 50 mM HEPES pH 9.0, 37°C; initial rate of oxygen consumption / enzyme concentration.
Excerpt: as §1, with “Pseudomonas alcaligenes” for “Citrus sinensis”, “12)” for “11)”, “270)” for “268)”, “271),” for “269),”
as §2

For the compound `CCCCCCCCCCCCCCCCCC(=O)O` [Stearic Acid], the “Stearic Acid, TON” value was determined as 0.00 s⁻¹ in experiment [1] and 0.21 s⁻¹ in experiment [2].

As to `CCCCCCCC/C=C\CCCCCCCC(=O)O` [Oleic Acid], the “Oleic Acid, TON” value in experiment [1] and in experiment [2] was 0.00 s⁻¹ each time.

Take `CCCCCCCCCCCCCCCC(=O)O` [Palmitic Acid]: the figures for the “Palmitic Acid, TON” value in experiment [1] and in experiment [2] were 0.29 s⁻¹ and 0.36 s⁻¹, respectively.
